Values of other authors in patent US20070197495A1, “ANTI-PARASITIC COMPOUNDS AND METHODS OF THEIR USE” (THE REGENTS OF THE UNIVERSITY OF CALIFORNIA, priority 2004, published 2007).

What was measured:
T. cruzi [1] = conditions: cruzain inhibitor added to cultures of mammalian cells exposed to trypomastigotes or already infected with amastigotes
T. cruzi [2] = conditions: mouse model study (Engel et al. 1998)

benzyloxy-carbonyl-L-phenylalanyl L-alanine fluoromethyl ketone [Z-Phe-Ala-FMK]
replication and differentiation of the parasite (T. cruzi [1]): blocks replication and differentiation of the parasite

CN1CCN(C(=O)NC(Cc2ccccc2)C(=O)NC(C=CS(=O)(=O)c2ccccc2)CCc2ccccc2)CC1 (centres unmarked) [N-methyl piperazine-Phe-homoPhe-vinyl sulfone phenyl]
outcome of treatment of T. cruzi-infected mice (T. cruzi [2]): cure
